Experimental findings from ChEMBL document CHEMBL6092137, “Synergistic immune augmentation enabled by covalently conjugating TLR4 and NOD2 agonists” (Eur J Med Chem, 2024) are described below.

Calls of active or inactive are those of the source. No cut-off for these calls is given here.

Series [1] is described as follows: Induction of mouse BMDC cell maturation assessed as change in CD86 positive cells incubated for 18 hrs by staining based flow cytometric analysis relative to control. The class given is functional.
Series [2] can be described thus: Induction of mouse BMDC cell maturation assessed as change in CD80 positive cells incubated for 18 hrs by staining based flow cytometric analysis relative to control. Format: functional.
A short description of series [3]: Induction of mouse RAW264.7 cell maturation assessed as fold increase in CD80 positive cells incubated for 18 hrs in the presence of muramyl dipeptide by staining based flow cytometric analysis relative to RC529-NH2. Format: functional.
Series [4] is described as follows: Induction of mouse RAW264.7 cell maturation assessed as change in CD86 positive cells incubated for 18 hrs by staining based flow cytometric analysis relative to control. Format: functional.
Series [5] can be described thus: Induction of mouse RAW264.7 cell maturation assessed as change in CD86 positive cells incubated for 18 hrs in the presence of muramyl dipeptide by staining based flow cytometric analysis relative to control. The class given is functional.
Series [6] in a line: Induction of mouse RAW264.7 cell maturation assessed as change in CD80 positive cells incubated for 18 hrs by staining based flow cytometric analysis relative to control. Format: functional.
Series [7] concerns BMDC. As to the kind of experiment: Immunostimulatory activity in C57BL/6 mouse BMDC cells assessed as increase in IL-6 level at 9.3 uM incubated for 20 hrs in presence of TAK242 inhibitor by ELISA. The class given is functional, cell-based.
Series [8] is described as follows: Induction of mouse BMDC cell maturation assessed as change in CD80 positive cells incubated for 18 hrs in the presence of muramyl dipeptide by staining based flow cytometric analysis relative to control. The class given is functional.
A short description of series [9]: Induction of mouse RAW264.7 cell maturation assessed as fold increase in CD80 positive cells incubated for 18 hrs in the presence of muramyl dipeptide by staining based flow cytometric analysis relative to muramyl dipeptide. The class given is functional.
Series [10] can be described thus: Induction of mouse BMDC cell maturation assessed as change in CD86 positive cells incubated for 18 hrs in the presence of muramyl dipeptide by staining based flow cytometric analysis relative to control. Format: functional.
A short description of series [11]: Induction of mouse RAW264.7 cell maturation assessed as change in CD80 positive cells incubated for 18 hrs in the presence of muramyl dipeptide by staining based flow cytometric analysis relative to control. The class given is functional.
The test system of series [12] is BMDC. As to the kind of experiment: Immunostimulatory activity in C57BL/6 mouse BMDC cells assessed as increase in IL-6 level at 9.3 uM incubated for 20 hrs in presence of GSK717 inhibitor by ELISA. Format: functional, cell-based.
Another series relates to THP-1. As to the kind of experiment: Cytotoxicity against human THP-1 cells assessed as reduction in cell viability by MTT assay. Format: toxicity, cell-based.
The test system of series [13] is Mus musculus. Put plainly: Induction of innate immunity in BALB/c mouse assessed as fold increase in IL-6 level in serum at 16.12 ug, ip measured after 2 hrs in presence of muramyl dipeptide by ELISA relative to RC529. Format: functional. The conditions noted are these: dose 16.12 µg.
Series [14] deals with T-cell. As to the kind of experiment: Immunostimulatory activity in mouse spleen T-lymphocytes assessed as fold increase in proportion of TNF-alpha and IFN-gamma double-positive secreting CD4+ cells and measured on day 42 in the presence of muramyl dipeptide by staining based flow cytometric analysis relative to muramyl dipeptide. The conditions noted are these: time 42 day. The class given is functional.

The subject of series [15] is Mus musculus. Put plainly: Induction of innate immunity in BALB/c mouse assessed as fold increase in IL-6 level in serum at 5.36 ug, ip measured after 2 hrs in presence of muramyl dipeptide by ELISA relative to muramyl dipeptide. The class given is functional. The conditions noted are these: dose 5.36 µg.
Series [16] concerns T-cell. As to the kind of experiment: Immunostimulatory activity in mouse spleen T-lymphocytes assessed as fold increase in proportion of TNF-alpha and IFN-gamma double-positive secreting CD4+ cells and measured on day 42 in the presence of muramyl dipeptide by staining based flow cytometric analysis relative to RC529. The conditions noted are these: time 42 day. The class given is functional.

Series [17] is filed under the species Mus musculus. As to the kind of experiment: Activation of adaptive immune response in ovalbumin immunized mouse model assessed as fold increase in IgG titers incubated for 1 hrs in presence of muramyl dipeptide and measured on day 42 relative to RC529. The class given is functional.
For series [18], the system named is Mus musculus. As to the kind of experiment: Induction of innate immunity in BALB/c mouse assessed as fold increase in IL-6 level in serum at 16.12 ug, ip in liposome formulation measured after 2 hrs by ELISA relative to RC529-NH2. Format: functional. The note with it: dose 16.12 µg.
Series [19] is described as follows: Induction of mouse RAW264.7 cell maturation assessed as fold increase in CD80 positive cells incubated for 18 hrs in the presence of muramyl dipeptide by staining based flow cytometric analysis relative to RC529. The class given is functional.
For series [20], the species on record is Mus musculus. As to the kind of experiment: Activation of adaptive immune response in ovalbumin immunized mouse model assessed as fold increase in IgG titers incubated for 1 hrs in presence of muramyl dipeptide and measured on day 42 relative to muramyl dipeptide. The class given is functional.

As for `CCCCCCCCCCCCCC(=O)O[C@H](CCCCCCCCCCC)CC(=O)NCCO[C@@H]1O[C@H](CN)[C@@H](OP(=O)(O)O)[C@H](OC(=O)C[C@@H](CCCCCCCCCCC)OC(=O)CCCCCCCCCCCCC)[C@H]1NC(=O)C[C@@H](CCCCCCCCCCC)OC(=O)CCCCCCCCCCCCC`, the Activity in [1] was 12.9%; in series [2] it was 15.3%; in series [4] it was 10.7%; in [5] it was 10.9%; in [6], 14.7%; in [8], 22.8%. For the same compound, the Activity in series [10] was 14.4%; in series [11], 16.2%. Moreover, the figures for the “fold change (FC)” value in [3] and in series [9] were 1.1 and 1.3, respectively. In addition, the result in the series with BMDC [7] was inactive.

Turning to `CC(=O)N[C@@H]1[C@@H](O[C@H](C)C(=O)N[C@@H](C)C(=O)N[C@H](CCC(=O)O)C(N)=O)[C@H](O)[C@@H](CO)O[C@H]1O` [MURAMYLDIPEPTIDE], the Activity in series [1] worked out at 11.4%; in [2] it was 13.6%; in series [4], 10.8%; in series [6], 12.2%. Also, the result with BMDC [12] was inactive.

Consider `CN(CCc1nc2ccccc2n1CC(=O)Nc1ccc2c(c1)CCC2)C(=O)c1ccccc1`, for which the Activity result in the series on THP-1 is reported as “Non-toxic”.

Take `CCOC(=O)C1=CCCC[C@H]1S(=O)(=O)Nc1ccc(F)cc1Cl` [RESATORVID]: the Activity result in the series on THP-1 is reported as “Non-toxic”.

As to `CCCCCCCCCCCCCC(=O)O[C@H](CCCCCCCCCCC)CC(=O)NCCO[C@@H]1O[C@H](CO)[C@@H](OP(=O)(O)O)[C@H](OC(=O)C[C@@H](CCCCCCCCCCC)OC(=O)CCCCCCCCCCCCC)[C@H]1NC(=O)C[C@@H](CCCCCCCCCCC)OC(=O)CCCCCCCCCCCCC.CCN(CC)CC`, the “fold change (FC)” value with Mus musculus [13] is listed as 1.04; in the series with T-cell [14] it was 1.2; in the series with Mus musculus [15], 17; in the series on T-cell [16], 1.2; in the series listed under Mus musculus [17], 1.1; in the series with Mus musculus [18], 21. For the same compound, the “fold change (FC)” value is reported as 1.1 in series [19], 1.9 in the series filed under Mus musculus [20] and 2.4 in [9]. In addition, the Activity in series [1] worked out at 14%; in [2], 21.6%; in series [4], 13.1%; in series [5], 13.4%; in [6] it was 26.9%; in [8], 24.1%. Besides, the Activity in [10] stood at 14.6%; in series [11], 28.7%. Further, the result in the series with BMDC [7] was inactive.
